Data published in patent US20180243421A1, “IMMUNOSTIMULATING AGENT” (AJINOMOTO CO., INC., priority 2015, published 2018).

Legend:
[1] = test system: anti-OVA-specific IgG2a subclass antibody; experiment: Adjuvant activity: anti-OVA-specific IgG2a subclass antibody in serum after secondary immunization; type: in vivo, BALB/c mice
Method: Two weeks from the secondary immunization, the whole blood was extracted under anesthesia, and the obtained serum sample was measured for anti-OVA-specific IgG1 subclass antibody.
Measurement Method of anti-OVA-specific IgG2a Subclass Antibody
To a 96 well plate was added 5 μg/ml OVA at 100 μl/well, and the mixture was incubated at 4° C. overnight. After incubation, the mixture was washed three times with 200 μl of PBS-T (PBS+0.05%(v/v) Tween 20) per well, and blocked with 100 μl of 5% FCS/PBS solution per well at room temperature for 1 to 2 hr. Thereafter, the mixture was washed three times with PBS-T (200 μl/well), a diluted serum sample (100 μl/well) or the same amount of 5% FCS/PBS solution as a control was added, and the mixture was incubated at 37° C. for 1 hr. Thereafter, the mixture was washed five times with PBS-T (200 μl/well), a diluted biotinylated anti-mouse IgG2a antibody (100 μl/well) was added, and the mixture was incubated at 37° C. for 45 min. Thereafter, the mixture was washed five times with PBS-T (200 μl/well), a diluted anti-biotin-HRP antibody was added (100 μl/well), and the mixture was incubated at 37° C. for another 30 min. Thereafter, the mixture was washed five times with PBS-T (200 μl/well), TMB substrate solution was added (100 μl/well), and the mixture was incubated at room temperature for 10-15 min. Thereafter, a reaction quenching liquid (2N sulfuric acid solution) was added (50 μl/well) to discontinue a color developing reaction, and the absorbance (OD Value=450 nm) was measured by a microplate reader.
Measurement Method of Concentration of anti-OVA-specific IgG1 Subclass Antibody and anti-OVA-specific IgG2a Subclass Antibody
To a 96 well plate was added 5 μg/ml OVA at 100 μl/well, and the mixture was incubated at 4° C. overnight. After incubation, the mixture was washed three times with 200 μl of PBS-T (PBS+0.05% (v/v) Tween 20) per well, and blocked with 100 μl of 5% FCS/PBS solution per well at room temperature for 1 to for 2 hr. […] When an anti-OVA-specific IgG2a subclass antibody was measured, the standard of an anti-OVA-specific IgG2a subclass antibody was added at 50 ng/ml, 25 ng/ml, 12,5 ng/ml, 6.25 ng/ml, 3.125 ng/ml, 1.56 ng/ml, 0.781 ng/ml, 0.391 ng/ml, 0.195 ng/ml, 0.098 ng/ml, 0.049 ng/ml, 0 ng/ml, per 1 well. […] Thereafter, a reaction quenching liquid (2N sulfuric acid solution) was added (50 μl/well) to discontinue a color developing reaction, and the absorbance (OD Value=450 nm) was measured by a microplate reader. A standard curve was drawn from the measured OD values, and the concentration was calculated.

[2] = test system: anti-influenza IgA antibody; experiment: Transnasal influenza vaccine adjuvant activity: anti-influenza IgA antibody in nasal cavity wash; type: in vivo, BALB/c mice; details: Example 4, influenza HA vaccine 20 μl, SZ62 1 μg, Poly(I:C) 5 μg, two weeks from secondary immunization
[3] = test system: IL-4; experiment: Th2 response: IL-4 production from lymph node cells of immunized mice restimulated with OVA; type: in vivo, BALB/c mice; details: Example 10; s.c. OVA 10 μg + 0.256 μmol in 5% αCD saline (Addavax 1:1); groin lymph node ten days later; 0.1-100 μg OVA, 40 hr, ELISA
Method: Ten days later, groin lymph node was collected from all mice of the above-mentioned (1) to (4), lymph node cells were isolated and cultured in 10% FBS-containing RPMI1640 medium. Thereto was added 0.1 μg, 1 μg, 10 μg, 100 μg of OVA, respectively, 40 hr later, cell supernatant was recovered, and IFN-γ and IL-4 in the supernatant were measured by ELISA.

[4] = Dispersibility study: turbidity in cyclodextrin-added saline; type: physicochemical; details: Example 11; SZ62 0.256 μmol in 1 mL; absorbance 650 nm, ratio to kaolinite
Method: N-hexadecanoylagmatine (SZ62: compound wherein group corresponding to R^7 in formula (II) is C15 alkyl group) (0.256 μmol) was separated in a 2 mL tube containing zilconia beads, 1 mL of 5% αCD-added saline or 10% 2-hydroxypropyl-β-cyclodextrin (hereinafter to be also simply referred to as HP-β-CD)-added saline was added and the mixture was stirred. Thereafter, the absorbance (OD Value=650 nm) was measured by a microplate reader, and the turbidity was calculated as an index of dispersibility. The measurement method of the turbidity was as follows.
Measurement Method of Turbidity
SZ62 (0.256 μmol) was dispensed to a 2 mL tube containing zirconia beads, 5% αCD-added saline or 10% HP-β-CD-added saline (1 mL) was added, and the mixture was vigorously stirred three times under conditions of one time for 3.15 seconds at 6000 rpm. The mixture was dispensed by 200 μL to a 96 well plate, and the absorbance (OD Value=650 nm) was measured by a microplate reader. As a control, kaolinite (1 mg) was dissolved in distilled water (1 L), and the absorbance (OD Value=650 nm) was measured by a microplate reader. The absorbance thereof (OD Value=650 nm) was defined to be turbidity: 1, and the turbidity of each sample was calculated from the ratio with the measured value of kaolinite.

[5] = test system: anti-OVA-specific IgG1 subclass antibody; experiment: Adjuvant activity: anti-OVA-specific IgG1 subclass antibody in serum after secondary immunization (Examples 12, 19, 20, 21); type: in vivo, BALB/c mice; details: Example 21; s.c.; SZ62 0.256 μmol in 5% αCD saline, CpG 5 μg, MPL 5 μg, Addavax 1:1, Alum; two weeks from secondary immunization
[6] = Example 2, serum sample of Example 1

CCCCCCCCCCCCCCCC(=O)NC(=N)NCCCCN [SZ62, N-hexadecanoylagmatine]
adjuvant activity (IgG2a) compared with Alum [1, 6]: equivalent to that of Alum | anti-OVA-specific IgG2a subclass antibody production as compared to the OVA single administration group [1, 6]: significantly increased | anti-OVA-specific IgG2a subclass antibody production as compared to the OVA single administration group ([1]; Example 21, s.c., SZ62 0.256 μmol in 5% αCD saline, CpG 5 μg, MPL 5 μg, Addavax 1:1, Alum, two weeks from secondary immunization): tended to increase | anti-influenza IgA antibody production in nasal cavity wash as compared to the influenza vaccine single administration group [2]: significantly increased | IL-4 production from lymph node cells [3]: did not show an increase | turbidity after addition of 10% HP-β-CD-added saline and stirring, versus turbidity after addition of 5% αCD-added saline [4]: significantly lower | anti-OVA-specific IgG1 subclass antibody production as compared to the OVA single administration group [5]: tended to increase
